Results taken from patent US9249154B2, “Compounds and therapeutic use thereof for protein kinase inhibition” (priority 2008, dated 2016).
Like-named read-outs stand apart in the source and are kept apart here.

Legend:
[1] = test system: Human Ovarian cancer (A2780); assay: In vitro anti-cancer cell activity (cellular toxicity, SRB and MTT methods, 72 hours); type: cell-based; details: read-out: In vitro anti-cancer cell activities IC50, Human Ovarian cancer (A2780)
[2] = test system: Human colon cancer HT-29; assay: as above; type: cell-based; details: read-out: In vitro anti-cancer cell activities IC50, Human colon cancer HT-29
[3] = test system: Human Gastric Cancer (BGC-823); assay: as above; type: cell-based; details: read-out: In vitro anti-cancer cell activities IC50, Human Gastric Cancer (BGC-823)
[4] = test system: transplanted human colon cancer HT-99; assay: Effects on HT99 transplanted nude mice; type: in vivo; details: 60 mg/kg ip, d0, 1; for RTV (relative tumor volume) / TV dn: X ± SD; for TV dn: dn = 17 days after drug treatment
[5] = test system: Mouse Lung Cancer (3LL); assay: In vitro anti-cancer cell activity (cellular toxicity, SRB and MTT methods, 72 hours); type: cell-based; details: read-out: In vitro anti-cancer cell activities IC50, Mouse Lung Cancer (3LL)

Molecule	IC50 [3] [µM]	T/C [4] [%]	RTV (relative tumor volume) [4]	TV dn [4] [mm^3]	IC50 ([5]; Mus musculus) [µM]	other results
2-(4-chlorophenyl)-4-(3-α-thiapyranmethy)-thieno[2,3-d]pyridazine-7-carboxylic acid amide [Compound 11]	9.24	113.4	7.52 ± 0.26	1224 ± 440	–	IC50 [1]: 11.8 µM; IC50 [2]: 10.7 µM; IC50 [5]: 8.43 µM
NC(=O)c1nnc(CC2CCNCC2)c2cc(-c3ccc(Cl)cc3)sc12 [Compound 5, 2-(4-chlorophenyl)-4-(4-piperidinemethy)-thieno[2,3-d]pyridazine-7-carboxylic acid amide]	–	96.5	6.40 ± 0	910 ± 0	–	–
NC(=O)c1nnc(Cc2ccncc2)c2cc(-c3ccc(Cl)cc3)sc12 [Compound 13, 2-(4-chlorophenyl)-4-(4-pyridinemethy)-thieno[2,3-d]pyridazine-7-carboxylic acid amide]	2.62	–	–	–	–	IC50 [1]: 1.18 µM; IC50 [2]: 0.73 µM; IC50 [5]: 1.24 µM
NC(=O)c1nnc(Cc2cc[nH]c2)c2cc(-c3ccc(Cl)cc3)sc12 [Compound 14, 2-(4-chlorophenyl)-4-(3-pyrrolemethy)-thieno[2,3-d]pyridazine-7-carboxylic acid amide]	30.5	–	–	–	–	IC50 [1]: 6.01 µM; IC50 [2]: 16.8 µM; IC50 [5]: 8.59 µM
NC(=O)c1nnc(Cc2ccoc2)c2cc(-c3ccc(Cl)cc3)sc12 [Compound 15, 2-(4-chlorophenyl)-4-(3-furanmethy)-thieno[2,3-d]pyridazine-7-carboxylic acid amide]	2.25	–	–	–	–	–
CN(C)C(=O)c1nnc(CC2CCCOC2)c2cc(-c3ccc(Cl)cc3)sc12 (centres unmarked) [Compound 19]	–	68.3	4.53 ± 0.82	663 ± 86	–	–
NC(=O)c1nnc(CC2CCNC2)c2cc(-c3ccc(Br)cc3)sc12 (centres unmarked) [Compound 22]	–	70.7	4.69 ± 0.71	714 ± 127	–	–
NC(=O)c1nnc(CC2CCOC2)c2cc(-c3ccc(F)cc3)sc12 (centres unmarked) [Compound 23]	–	–	–	–	> 100	–
NC(=O)c1nnc(CC2CCOC2)c2cc(-c3ccc(Cl)cc3)sc12 (centres unmarked) [Compound 24]	–	–	–	–	> 100	IC50 ([1]; Homo sapiens): > 100 µM; IC50 ([2]; Homo sapiens): > 100 µM; IC50 ([3]; Homo sapiens): 24.6 µM
NC(=O)c1nnc(CC2CCNC2)c2cc(-c3ccc(Cl)cc3)sc12 (centres unmarked) [Compound 30]	–	57.0	3.78 ± 1.09	482 ± 83	–	–
NC(=O)c1nnc(CC2CCNC2)c2cc(-c3ccc(Cl)cc3)sc12 (centres unmarked) [Compound 31]	–	80.8	5.36 ± 1.94	785 ± 300	–	–
NC(=O)c1nnc(Cc2cccnc2)c2cc(-c3ccc(F)cc3)sc12 [Compound 38]	–	–	–	–	3.13	–
CN(C)C(=O)c1nnc(Cc2ccoc2)c2cc(-c3ccc(Cl)cc3)sc12 [Compound 70]	–	–	–	–	> 100	–
